{"source": "paper PMC8222394", "about": "(Nature Communications, 2021)", "key": {"TMPRSS2 [1]": {"tested_on": "TMPRSS2", "conditions": "Beas-2B; for TMPRSS2 densitometry: Fig. 6A, 6 h, listed as HFG"}, "TMPRSS2 [2]": {"tested_on": "TMPRSS2", "conditions": "Calu-3 cells"}, "SARS-CoV-2 pseudovirus [3]": {"tested_on": "SARS-CoV-2 pseudovirus", "test": "microbe, parasite or virus in culture", "format": "cell-based", "conditions": "Severe acute respiratory syndrome-related coronavirus"}, "[4]": {"conditions": "human, 3.5 mg/day Oral; cited from earlier work"}, "ST14": {"tested_on": "ST14", "test": "RT-qPCR of ST14 mRNA in Caco-2 cells", "format": "cell-based, human", "conditions": "Fig. S3B, Caco-2, 6 hr, relative to Veh"}, "TMPRSS2 [5]": {"tested_on": "TMPRSS2", "conditions": "for TMPRSS2 densitometry (relative to 0): Fig. 4C, Caco-2, 18 h; for TMPRSS2 densitometry (relative to 0) / TMPRSS2 densitometry, time course: listed as HFG; for TMPRSS2 densitometry, time course: Fig. 4D, Caco-2, 3 µM"}, "[6]": {"conditions": "cited from earlier work"}, "TMPRSS2-V5": {"tested_on": "TMPRSS2-V5", "format": "cell-based, human"}, "TMPRSS2 [7]": {"tested_on": "TMPRSS2", "test": "In vitro transcription and translation proline treatment assay", "format": "biochemical", "conditions": "with or without L-proline supplementation", "description": "TMPRSS2 constructs were synthesized in vitro using TnT Coupled Reticulocyte Lysate System (Promega) following manufacturer’s protocol. HFG plus proline assays were conducted using in vitro transcription and translation kit with free amino acids diluted 5-fold and proline supplemented at indicated concentrations. Following synthesis, products were analyzed via immunoblotting."}, "DCAF1 [8]": {"tested_on": "DCAF1", "test": "qPCR of DCAF1 gene expression in Caco-2 cells", "format": "cell-based, human"}, "in vitro": {"test": "in vitro", "conditions": "human"}, "TMPRSS2 [9]": {"biological_target": "T1, TMPRSS2 (Homo sapiens, UniProt O15393)", "test": "TMPRSS2 activity assay (Boc-Gln-Ala-Arg-MCA fluorescence)", "format": "biochemical", "design": "purchased LSBio", "conditions": "for TMPRSS2 activity (FigS9 source data): replicates", "description": "Fluorescence (380-15 nm excitation/470-20 nm emission) of the samples was monitored over 4:45 h and the slope of the curves was calculated by linear regression analysis and used as output for TMPRSS2 activity."}, "SARS-CoV-2 pseudovirus [10]": {"tested_on": "SARS-CoV-2 pseudovirus", "test": "Cell-based proline treatment, pseudoviral entry", "conditions": "for pseudoviral entry relative to Veh: replicates, listed as HFG"}, "DCAF1 [11]": {"tested_on": "DCAF1", "test": "Cellular thermal shift assay, DCAF1", "format": "binding, human", "conditions": "Beas-2B, HFG 3 μM 1 h"}, "TMPRSS2 [12]": {"tested_on": "TMPRSS2"}, "[13]": {"tested_on": "SARS-CoV-2 (wildtype-USA-WA1/2020)", "format": "cell-based"}, "TMPRSS2 [14]": {"tested_on": "TMPRSS2", "conditions": "Caco-2 cells, 18 h treatment then washout"}, "E-cadherin": {"tested_on": "E-cadherin", "test": "Immunoblot of E-cadherin in Caco-2 cells", "format": "cell-based, human"}, "Ace2-GFP": {"tested_on": "Ace2-GFP", "test": "Immunoblot of Ace2-GFP in Beas-2B cells", "format": "cell-based"}, "TMPRSS2 [15]": {"biological_target": "T1, TMPRSS2", "conditions": "Beas-2B, HFG 3 μM 1 h"}, "SARS-CoV-2 pseudovirus [16]": {"tested_on": "SARS-CoV-2 pseudovirus", "format": "cell-based"}, "SARS-CoV-2 pseudovirus [17]": {"tested_on": "SARS-CoV-2 pseudovirus", "format": "cell-based", "remark": "listed apart in the source"}}, "note": "Values joined by “and” are separate entries in the source; they are usually repeats but may differ in a detail not shown here. Equal entries are not always repeated. Where two headings read alike, the source gives them in different places."}
{"smiles": "O=C(CC1NCCCC1O)Cn1cnc2cc(Br)c(Cl)cc2c1=O", "note": "(stereo not drawn) [Halofuginone]", "values": [{"measurement": "effect on TMPRSS2 protein levels in DCAF1-knockdown cells", "setting": "TMPRSS2 [1]; DCAF1 siRNA", "result": "abrogated"}, {"measurement": "TMPRSS2 expression in control knockdown cells", "setting": "TMPRSS2 [1]; control siRNA", "result": "reduced TMPRSS2 expression"}, {"measurement": "TMPRSS2 densitometry", "setting": "TMPRSS2 [1]; Ctrl siRNA, HFG 100 nM", "result": "0.643 and 0.6245 and 0.6321"}, {"measurement": "TMPRSS2 densitometry", "setting": "TMPRSS2 [1]; Ctrl siRNA, HFG 300 nM", "result": "0.4952 and 0.3574 and 0.5989"}, {"measurement": "TMPRSS2 densitometry", "setting": "TMPRSS2 [1]; DCAF1 KD 1, HFG 100 nM", "result": "1.233 and 1.219 and 1.274"}, {"measurement": "TMPRSS2 densitometry", "setting": "TMPRSS2 [1]; DCAF1 KD 1, HFG 300 nM", "result": "1.254 and 1.215 and 1.261"}, {"measurement": "TMPRSS2 densitometry", "setting": "TMPRSS2 [1]; DCAF1 KD 2, HFG 100 nM", "result": "1.233 and 1.237 and 1.31"}, {"measurement": "TMPRSS2 densitometry", "setting": "TMPRSS2 [1]; DCAF1 KD 2, HFG 300 nM", "result": "1.246 and 1.239 and 1.116"}, {"measurement": "TMPRSS2 protein levels", "setting": "TMPRSS2 [2]", "result": "qualitatively similar decreases"}, {"measurement": "IC50", "setting": "SARS-CoV-2 pseudovirus [3]; Caco-2, read-out: In vitro IC50 (viral entry)", "result": "~0.03", "unit": "µM"}, {"measurement": "IC50", "setting": "SARS-CoV-2 pseudovirus [3]; Caco-2, read-out: concentration for 50% reduction in the level of pseudoviral entry", "result": "~0.3", "unit": "µM"}, {"measurement": "Cmax", "setting": "[4]", "result": 7, "unit": "nM"}, {"measurement": "ST14 mRNA expression", "setting": "ST14", "result": "0.847 and 0.804 and 0.672 and 1.192"}, {"measurement": "time to substantial reduction in TMPRSS2 expression", "setting": "TMPRSS2 [5]; Caco-2 cells, 3 µM", "result": "within three hours"}, {"measurement": "endogenous TMPRSS2 protein expression", "setting": "TMPRSS2 [5]; Caco-2 cells, 18 h", "result": "marked reduction"}, {"measurement": "TMPRSS2 densitometry (relative to 0)", "setting": "TMPRSS2 [5]; head 1 (unit not given)", "result": "0.1807 and 0.1069"}, {"measurement": "TMPRSS2 densitometry (relative to 0)", "setting": "TMPRSS2 [5]; head 3", "result": "0.1607 and 0.08785"}, {"measurement": "TMPRSS2 densitometry, time course", "setting": "TMPRSS2 [5]; time head 3", "result": "0.6876 and 0.6922 and 0.7386"}, {"measurement": "TMPRSS2 densitometry, time course", "setting": "TMPRSS2 [5]; time head 6", "result": "0.2973 and 0.5193 and 0.5743"}, {"measurement": "TMPRSS2 densitometry, time course", "setting": "TMPRSS2 [5]; time head 24", "result": "0.2861 and 0.2479 and 0.396"}, {"measurement": "toxicity profile", "setting": "[6]", "result": "very mild toxicity profile and is generally well tolerated"}, {"measurement": "TMPRSS2-V5 versus LacZ-V5 expression", "setting": "TMPRSS2-V5", "result": "selectively reduced TMPRSS2 expression"}, {"measurement": "synthesis of TMPRSS2", "setting": "TMPRSS2 [7]", "result": "can inhibit the in vitro and in vivo synthesis of TMPRSS2 in a proline-dependent fashion"}, {"measurement": "DCAF1 gene expression", "setting": "DCAF1 [8]; Caco-2, 3µM", "result": "do not affect DCAF1 gene expression"}, {"measurement": "relative DCAF1 gene expression", "setting": "DCAF1 [8]; block Vehicle/HFG/HHT, replicates, listed as HFG", "result": "1.066 and 1.83 and 0.845 and 0.576"}, {"measurement": "CC50", "setting": "in vitro", "result": "~5.54", "unit": "µM"}, {"measurement": "TMPRSS2 activity (FigS9 source data)", "setting": "TMPRSS2 [9]; 0.08 µM", "result": "0.4091 and 0.4156 and 0.3953 and 0.4416"}, {"measurement": "TMPRSS2 activity (FigS9 source data)", "setting": "TMPRSS2 [9]; 0.4 µM", "result": "0.4106 and 0.359 and 0.3929 and 0.3576"}, {"measurement": "TMPRSS2 activity (FigS9 source data)", "setting": "TMPRSS2 [9]; 2 µM", "result": "0.4305 and 0.3555 and 0.3601 and 0.3121"}, {"measurement": "TMPRSS2 catalytic activity", "setting": "TMPRSS2 [9]; recombinant TMPRSS2, preliminary", "result": "does not inhibit TMPRSS2 catalytic activity"}, {"measurement": "pseudoviral entry relative to Veh", "setting": "SARS-CoV-2 pseudovirus [10]; concentration 0.0137 (unit not given), 0mM Proline", "result": "152.697 and 134.687 and 120.427 and 97.7116 and 89.0983 and 90.8546 and 80.2015 and 88.7016"}, {"measurement": "pseudoviral entry relative to Veh", "setting": "SARS-CoV-2 pseudovirus [10]; concentration 0.0137 (unit not given), 1mM Proline", "result": "78.8997 and 119.296 and 92.4783 and 61.8538 and 121.318 and 103.717 and 95.0292 and 87.0468"}, {"measurement": "pseudoviral entry relative to Veh", "setting": "SARS-CoV-2 pseudovirus [10]; concentration 0.0137 (unit not given), 5mM Proline", "result": "83.8659 and 82.9011 and 90.5346 and 126.552 and 83.6269 and 86.2224 and 92.3835 and 76.5378"}, {"measurement": "pseudoviral entry relative to Veh", "setting": "SARS-CoV-2 pseudovirus [10]; concentration 0.0412 (unit not given), 0mM Proline", "result": "135.074 and 83.8509 and 103.144 and 111.461 and 116.846 and 105.51 and 105.878 and 113.705"}, {"measurement": "pseudoviral entry relative to Veh", "setting": "SARS-CoV-2 pseudovirus [10]; concentration 0.0412 (unit not given), 1mM Proline", "result": "110.112 and 97.4283 and 87.7103 and 127.69 and 97.5882 and 67.824 and 78.2944 and 117.716"}, {"measurement": "pseudoviral entry relative to Veh", "setting": "SARS-CoV-2 pseudovirus [10]; concentration 0.0412 (unit not given), 5mM Proline", "result": "82.5299 and 121.265 and 73.6811 and 85.0503 and 103.755 and 88.171 and 83.5837 and 102.919"}, {"measurement": "pseudoviral entry relative to Veh", "setting": "SARS-CoV-2 pseudovirus [10]; concentration 0.123 (unit not given), 0mM Proline", "result": "99.7343 and 63.0974 and 80.3685 and 70.3519 and 79.4198 and 74.6305 and 82.2505 and 58.3341"}, {"measurement": "pseudoviral entry relative to Veh", "setting": "SARS-CoV-2 pseudovirus [10]; concentration 0.123 (unit not given), 1mM Proline", "result": "81.4705 and 100.257 and 127.468 and 88.584 and 113.575 and 85.4328 and 91.2395 and 78.3868"}, {"measurement": "pseudoviral entry relative to Veh", "setting": "SARS-CoV-2 pseudovirus [10]; concentration 0.123 (unit not given), 5mM Proline", "result": "62.4818 and 82.8199 and 109.855 and 101.172 and 80.2202 and 78.6211 and 92.2054 and 82.6012"}, {"measurement": "pseudoviral entry relative to Veh", "setting": "SARS-CoV-2 pseudovirus [10]; concentration 0.37 (unit not given), 0mM Proline", "result": "52.2274 and 41.9717 and 59.924 and 47.6381 and 40.7991 and 39.6967 and 44.7511 and 47.5163"}, {"measurement": "pseudoviral entry relative to Veh", "setting": "SARS-CoV-2 pseudovirus [10]; concentration 0.37 (unit not given), 1mM Proline", "result": "63.0963 and 89.0802 and 95.5491 and 76.9085 and 75.5967 and 54.6206 and 124.078 and 94.9093"}, {"measurement": "pseudoviral entry relative to Veh", "setting": "SARS-CoV-2 pseudovirus [10]; concentration 0.37 (unit not given), 5mM Proline", "result": "84.0152 and 111.59 and 116.82 and 90.6831 and 82.0915 and 111.563 and 85.8373 and 95.0829"}, {"measurement": "protection against pseudoviral entry with proline augmentation", "setting": "SARS-CoV-2 pseudovirus [10]; proline added to cell culture media", "result": "ablated"}, {"measurement": "binding to DCAF1", "setting": "DCAF1 [11]", "result": "does not bind"}, {"measurement": "TMPRSS2 transcription", "setting": "TMPRSS2 [12]; Caco-2 cells", "result": "modestly increased"}, {"measurement": "TMPRSS2 mRNA expression, Set1", "setting": "TMPRSS2 [12]; Fig. S3B, Caco-2, 6 hr, relative to Veh", "result": "1.663 and 2.342 and 1.988 and 2.135"}, {"measurement": "reduction of SARS-CoV-2 viral infection", "setting": "[13]", "result": "highly effective in reducing SARS-CoV-2 viral infection"}, {"measurement": "recovery of TMPRSS2 levels after drug removal", "setting": "TMPRSS2 [14]", "result": "returned close to baseline roughly six hours after drug removal"}, {"measurement": "E-cadherin protein", "setting": "E-cadherin", "result": "unaffected"}, {"measurement": "Ace2 protein", "setting": "Ace2-GFP", "result": "unaffected"}, {"measurement": "binding to TMPRSS2", "setting": "TMPRSS2 [15]", "result": "does not bind"}, {"measurement": "pseudoviral GFP expression", "setting": "SARS-CoV-2 pseudovirus [16]", "result": "markedly reduced levels of GFP expression"}, {"measurement": "pseudoviral luciferase reporter signal", "setting": "SARS-CoV-2 pseudovirus [17]", "result": "dose-dependent reduction of the luciferase signal"}, {"measurement": "signal relative to Control (FigS7 source data)", "setting": "SARS-CoV-2 pseudovirus [17]", "result": "0.6435 and 0.5799 and 0.5278"}]}
